From article PMC9329436, “Optimization of the 4-anilinoquin(az)oline scaffold as epidermal growth factor receptor (EGFR) inhibitors for chordoma utilizing a toxicology profiling assay platform” (Scientific Reports, 2022)
Read-outs that look alike come from different tables or passages of the source.

Columns and labels:
Type in all cases: biochemical
[1] = target: 320 wild-type protein kinases (Homo sapiens, UniProt Q16512); conditions: singlicate
Description: (§1) Table S4. Profiling of two compounds at two concentrations against 320 wild-type protein kinases; singlicate measurement; Residual activities (% of control).

[2] = target: T1, 320 wild-type protein kinases (Homo sapiens, UniProt Q9H093); conditions: kinase SNARK, singlicate
T1 sequence (Q9H093 1-628): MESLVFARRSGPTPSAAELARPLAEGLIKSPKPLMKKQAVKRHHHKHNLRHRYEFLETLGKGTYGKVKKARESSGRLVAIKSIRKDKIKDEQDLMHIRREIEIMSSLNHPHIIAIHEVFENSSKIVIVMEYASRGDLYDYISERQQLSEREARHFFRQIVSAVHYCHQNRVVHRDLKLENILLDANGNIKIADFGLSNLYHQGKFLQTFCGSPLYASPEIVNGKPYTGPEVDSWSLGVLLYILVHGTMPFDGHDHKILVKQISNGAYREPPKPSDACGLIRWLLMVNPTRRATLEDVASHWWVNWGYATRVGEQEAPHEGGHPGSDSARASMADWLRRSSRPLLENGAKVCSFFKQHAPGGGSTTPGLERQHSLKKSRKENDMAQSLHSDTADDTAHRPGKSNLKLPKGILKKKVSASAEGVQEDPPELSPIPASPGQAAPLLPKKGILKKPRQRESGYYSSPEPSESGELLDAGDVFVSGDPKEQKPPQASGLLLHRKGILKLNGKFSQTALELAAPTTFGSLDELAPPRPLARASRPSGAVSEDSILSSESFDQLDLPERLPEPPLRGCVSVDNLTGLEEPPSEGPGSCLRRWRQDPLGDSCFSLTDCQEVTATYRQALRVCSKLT
Description: as §1

[3] = target: 320 wild-type protein kinases (Homo sapiens, UniProt P11362); conditions: singlicate
Description: as §1

[4] = target: 320 wild-type protein kinases (Homo sapiens, UniProt P16591); conditions: FER, singlicate
Description: as §1

[5] = target: T2, 320 wild-type protein kinases (Homo sapiens, UniProt O00141); conditions: kinase SGK1, singlicate
T2 sequence (O00141 1-431): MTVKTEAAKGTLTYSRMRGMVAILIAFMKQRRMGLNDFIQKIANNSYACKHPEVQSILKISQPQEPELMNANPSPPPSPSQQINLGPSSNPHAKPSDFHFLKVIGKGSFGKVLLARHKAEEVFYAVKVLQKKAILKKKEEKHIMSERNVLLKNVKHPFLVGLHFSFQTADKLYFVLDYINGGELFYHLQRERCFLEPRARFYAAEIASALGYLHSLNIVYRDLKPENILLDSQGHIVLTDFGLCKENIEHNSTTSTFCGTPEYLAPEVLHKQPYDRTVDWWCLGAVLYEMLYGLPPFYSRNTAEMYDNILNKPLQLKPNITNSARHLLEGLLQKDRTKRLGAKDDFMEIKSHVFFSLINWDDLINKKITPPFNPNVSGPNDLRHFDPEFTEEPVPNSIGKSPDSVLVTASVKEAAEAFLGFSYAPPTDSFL
Description: as §1

[6] = target: 320 wild-type protein kinases (Homo sapiens, UniProt P31749); conditions: singlicate
Description: as §1

[7] = target: 320 wild-type protein kinases (Homo sapiens, UniProt Q5S007); conditions: singlicate
Description: as §1

[8] = target: 320 wild-type protein kinases (Homo sapiens, UniProt Q9UK32); conditions: kinase RPS6KA6, singlicate
Description: as §1

[9] = target: 320 wild-type protein kinases (Homo sapiens, UniProt Q5TCY1); conditions: kinase TTBK1, singlicate
Description: as §1

[10] = target: T3, 320 wild-type protein kinases (Homo sapiens, UniProt P21709); conditions: singlicate
T3 sequence (P21709 26-976): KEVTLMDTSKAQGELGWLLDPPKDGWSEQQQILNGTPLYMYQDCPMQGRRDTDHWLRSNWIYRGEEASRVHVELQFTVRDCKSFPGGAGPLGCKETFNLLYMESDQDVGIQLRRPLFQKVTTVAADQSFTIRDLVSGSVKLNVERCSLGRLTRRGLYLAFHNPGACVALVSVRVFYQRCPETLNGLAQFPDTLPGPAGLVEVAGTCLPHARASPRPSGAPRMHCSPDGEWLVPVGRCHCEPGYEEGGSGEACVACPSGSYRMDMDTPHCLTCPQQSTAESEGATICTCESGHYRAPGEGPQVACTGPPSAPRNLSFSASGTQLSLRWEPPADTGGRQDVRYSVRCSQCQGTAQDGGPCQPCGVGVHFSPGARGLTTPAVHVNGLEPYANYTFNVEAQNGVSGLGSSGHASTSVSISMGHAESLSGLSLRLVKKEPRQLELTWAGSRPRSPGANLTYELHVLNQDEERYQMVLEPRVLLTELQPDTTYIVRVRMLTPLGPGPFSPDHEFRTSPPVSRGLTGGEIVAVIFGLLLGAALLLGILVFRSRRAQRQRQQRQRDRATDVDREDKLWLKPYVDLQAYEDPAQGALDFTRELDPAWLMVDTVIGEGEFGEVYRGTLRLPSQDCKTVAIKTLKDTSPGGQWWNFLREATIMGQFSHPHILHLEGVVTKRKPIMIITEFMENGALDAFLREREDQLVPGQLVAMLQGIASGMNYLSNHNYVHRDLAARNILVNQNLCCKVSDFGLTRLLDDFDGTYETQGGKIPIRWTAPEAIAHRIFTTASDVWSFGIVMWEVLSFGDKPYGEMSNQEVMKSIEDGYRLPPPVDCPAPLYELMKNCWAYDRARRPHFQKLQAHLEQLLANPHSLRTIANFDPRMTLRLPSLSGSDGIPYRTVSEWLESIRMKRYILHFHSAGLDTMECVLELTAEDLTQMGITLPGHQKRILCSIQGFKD
Description: as §1

Sequence of 320 wild-type protein kinases (Homo sapiens, UniProt P31749) (P31749 whole entry): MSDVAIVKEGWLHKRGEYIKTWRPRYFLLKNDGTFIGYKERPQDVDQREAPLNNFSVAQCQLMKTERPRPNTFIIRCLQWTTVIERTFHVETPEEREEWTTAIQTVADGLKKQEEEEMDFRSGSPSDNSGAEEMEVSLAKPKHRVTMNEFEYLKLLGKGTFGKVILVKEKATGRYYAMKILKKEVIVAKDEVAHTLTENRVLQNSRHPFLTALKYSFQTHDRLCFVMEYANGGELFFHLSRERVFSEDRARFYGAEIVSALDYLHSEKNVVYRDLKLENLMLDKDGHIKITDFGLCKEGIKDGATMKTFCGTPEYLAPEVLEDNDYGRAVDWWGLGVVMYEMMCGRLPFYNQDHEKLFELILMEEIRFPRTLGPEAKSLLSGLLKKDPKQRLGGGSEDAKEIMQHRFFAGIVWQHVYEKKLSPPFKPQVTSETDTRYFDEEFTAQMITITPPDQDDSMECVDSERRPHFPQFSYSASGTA
Sequence of 320 wild-type protein kinases (Homo sapiens, UniProt Q5S007) (Q5S007 whole entry): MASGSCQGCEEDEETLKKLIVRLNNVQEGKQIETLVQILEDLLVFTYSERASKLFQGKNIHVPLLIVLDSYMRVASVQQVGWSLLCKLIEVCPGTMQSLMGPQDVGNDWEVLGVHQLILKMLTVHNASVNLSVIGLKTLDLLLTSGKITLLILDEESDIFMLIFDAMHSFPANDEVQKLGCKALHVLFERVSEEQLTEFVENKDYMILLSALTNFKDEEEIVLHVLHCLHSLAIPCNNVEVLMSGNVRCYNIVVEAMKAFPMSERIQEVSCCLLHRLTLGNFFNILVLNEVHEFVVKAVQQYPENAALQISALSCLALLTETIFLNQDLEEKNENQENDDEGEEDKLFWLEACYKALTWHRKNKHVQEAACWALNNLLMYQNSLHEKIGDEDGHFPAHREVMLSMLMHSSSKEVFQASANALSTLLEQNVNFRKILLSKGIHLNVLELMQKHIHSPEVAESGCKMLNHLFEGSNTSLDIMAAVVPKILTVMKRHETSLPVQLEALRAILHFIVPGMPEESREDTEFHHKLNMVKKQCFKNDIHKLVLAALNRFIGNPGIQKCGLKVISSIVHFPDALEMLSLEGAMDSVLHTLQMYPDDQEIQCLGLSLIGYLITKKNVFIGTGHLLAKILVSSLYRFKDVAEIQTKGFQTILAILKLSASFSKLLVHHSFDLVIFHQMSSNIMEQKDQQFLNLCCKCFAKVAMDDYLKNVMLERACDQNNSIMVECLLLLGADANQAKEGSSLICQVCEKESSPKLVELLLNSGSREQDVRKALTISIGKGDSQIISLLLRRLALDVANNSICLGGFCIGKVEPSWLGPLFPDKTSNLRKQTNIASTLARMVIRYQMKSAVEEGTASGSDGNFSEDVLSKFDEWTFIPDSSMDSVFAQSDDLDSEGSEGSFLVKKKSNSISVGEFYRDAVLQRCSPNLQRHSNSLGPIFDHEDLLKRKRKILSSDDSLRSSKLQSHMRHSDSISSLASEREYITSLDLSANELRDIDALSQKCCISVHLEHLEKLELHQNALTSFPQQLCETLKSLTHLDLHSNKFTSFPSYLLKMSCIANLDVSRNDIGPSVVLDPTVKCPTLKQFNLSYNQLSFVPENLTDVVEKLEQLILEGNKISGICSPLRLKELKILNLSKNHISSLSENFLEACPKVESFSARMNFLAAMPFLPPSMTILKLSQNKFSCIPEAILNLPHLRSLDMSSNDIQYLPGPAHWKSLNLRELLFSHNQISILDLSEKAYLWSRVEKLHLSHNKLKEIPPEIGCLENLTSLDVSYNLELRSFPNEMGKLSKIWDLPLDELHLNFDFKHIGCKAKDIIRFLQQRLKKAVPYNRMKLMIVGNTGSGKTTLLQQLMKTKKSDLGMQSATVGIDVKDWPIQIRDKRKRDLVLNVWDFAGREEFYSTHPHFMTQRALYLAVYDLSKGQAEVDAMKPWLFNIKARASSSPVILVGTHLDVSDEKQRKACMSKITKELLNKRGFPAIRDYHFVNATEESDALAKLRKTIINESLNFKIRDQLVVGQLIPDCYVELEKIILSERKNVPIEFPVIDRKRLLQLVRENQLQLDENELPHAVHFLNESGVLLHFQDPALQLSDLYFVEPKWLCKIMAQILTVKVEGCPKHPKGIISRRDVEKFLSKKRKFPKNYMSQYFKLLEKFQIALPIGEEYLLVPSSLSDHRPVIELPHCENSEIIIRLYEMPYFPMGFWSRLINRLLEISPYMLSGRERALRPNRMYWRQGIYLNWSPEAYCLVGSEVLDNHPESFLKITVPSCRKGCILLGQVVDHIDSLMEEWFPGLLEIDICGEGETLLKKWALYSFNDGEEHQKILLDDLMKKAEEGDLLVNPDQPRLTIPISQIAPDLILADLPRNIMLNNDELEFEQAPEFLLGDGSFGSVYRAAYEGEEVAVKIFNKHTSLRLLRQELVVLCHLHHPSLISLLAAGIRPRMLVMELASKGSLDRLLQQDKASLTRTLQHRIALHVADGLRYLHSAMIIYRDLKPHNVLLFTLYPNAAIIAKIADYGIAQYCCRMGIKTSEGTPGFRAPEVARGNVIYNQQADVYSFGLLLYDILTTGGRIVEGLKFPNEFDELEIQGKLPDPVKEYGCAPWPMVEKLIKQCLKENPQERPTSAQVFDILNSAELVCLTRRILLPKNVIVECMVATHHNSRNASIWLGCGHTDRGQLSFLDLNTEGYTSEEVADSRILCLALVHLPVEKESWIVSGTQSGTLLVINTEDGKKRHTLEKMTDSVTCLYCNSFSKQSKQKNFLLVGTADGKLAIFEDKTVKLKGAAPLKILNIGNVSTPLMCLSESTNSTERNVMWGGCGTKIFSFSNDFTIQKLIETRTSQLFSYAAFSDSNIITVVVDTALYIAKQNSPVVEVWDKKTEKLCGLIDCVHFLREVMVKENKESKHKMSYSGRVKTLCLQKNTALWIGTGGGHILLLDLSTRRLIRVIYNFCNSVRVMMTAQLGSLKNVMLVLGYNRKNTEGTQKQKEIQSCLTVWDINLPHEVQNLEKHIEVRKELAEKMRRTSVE
Sequence of 320 wild-type protein kinases (Homo sapiens, UniProt P11362) (P11362 22-822): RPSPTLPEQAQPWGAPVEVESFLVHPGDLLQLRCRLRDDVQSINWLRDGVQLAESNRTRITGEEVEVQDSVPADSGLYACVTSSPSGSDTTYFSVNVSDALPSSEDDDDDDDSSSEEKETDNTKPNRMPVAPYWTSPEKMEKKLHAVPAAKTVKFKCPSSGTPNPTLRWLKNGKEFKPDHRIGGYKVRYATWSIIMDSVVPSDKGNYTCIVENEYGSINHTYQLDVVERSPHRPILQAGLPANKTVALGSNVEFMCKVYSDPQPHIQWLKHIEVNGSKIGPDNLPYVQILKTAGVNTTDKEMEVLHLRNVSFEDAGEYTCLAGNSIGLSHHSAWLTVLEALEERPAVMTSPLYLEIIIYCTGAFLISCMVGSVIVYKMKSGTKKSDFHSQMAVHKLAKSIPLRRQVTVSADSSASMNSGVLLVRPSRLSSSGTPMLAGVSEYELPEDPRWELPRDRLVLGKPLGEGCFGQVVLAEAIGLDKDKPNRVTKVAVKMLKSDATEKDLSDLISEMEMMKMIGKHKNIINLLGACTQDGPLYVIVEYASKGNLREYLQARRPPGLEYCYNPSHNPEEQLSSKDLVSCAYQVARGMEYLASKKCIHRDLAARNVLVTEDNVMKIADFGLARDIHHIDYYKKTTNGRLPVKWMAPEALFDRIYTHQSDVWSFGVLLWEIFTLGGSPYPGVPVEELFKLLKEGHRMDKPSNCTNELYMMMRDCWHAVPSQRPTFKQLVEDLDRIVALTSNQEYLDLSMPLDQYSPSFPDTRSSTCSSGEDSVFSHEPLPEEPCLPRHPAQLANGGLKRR
Sequence of 320 wild-type protein kinases (Homo sapiens, UniProt P16591) (P16591 whole entry): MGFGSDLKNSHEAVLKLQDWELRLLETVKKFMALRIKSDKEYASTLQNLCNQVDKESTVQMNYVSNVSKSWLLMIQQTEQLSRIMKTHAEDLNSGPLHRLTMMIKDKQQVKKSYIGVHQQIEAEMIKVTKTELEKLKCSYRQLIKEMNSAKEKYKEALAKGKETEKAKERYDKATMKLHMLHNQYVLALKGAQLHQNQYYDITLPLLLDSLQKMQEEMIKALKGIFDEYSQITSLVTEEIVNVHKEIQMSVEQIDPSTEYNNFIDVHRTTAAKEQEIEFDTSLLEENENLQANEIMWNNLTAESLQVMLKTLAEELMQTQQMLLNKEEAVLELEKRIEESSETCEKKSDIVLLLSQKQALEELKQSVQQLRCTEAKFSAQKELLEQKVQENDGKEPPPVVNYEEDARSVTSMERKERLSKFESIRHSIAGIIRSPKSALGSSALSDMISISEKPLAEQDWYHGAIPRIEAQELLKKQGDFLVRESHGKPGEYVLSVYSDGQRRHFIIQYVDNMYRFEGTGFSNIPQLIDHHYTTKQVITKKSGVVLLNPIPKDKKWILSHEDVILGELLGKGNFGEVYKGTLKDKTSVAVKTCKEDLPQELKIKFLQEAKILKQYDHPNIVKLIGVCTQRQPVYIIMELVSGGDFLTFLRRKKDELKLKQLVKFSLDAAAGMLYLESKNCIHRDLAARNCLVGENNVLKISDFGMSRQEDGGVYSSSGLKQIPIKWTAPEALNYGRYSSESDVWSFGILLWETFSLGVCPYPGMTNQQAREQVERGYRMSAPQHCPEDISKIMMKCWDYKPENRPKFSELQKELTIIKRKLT

Compound | Residual activity ([1]; PRK1, 1.0E-06 M) | Residual activity ([1]; PRK1, 1.0E-07 M) | Residual activity, SNARK ([2]; assay conc. 1.0E-06 M) | Residual activity, SNARK ([2]; assay conc. 1.0E-07 M) | Residual activity ([3]; FGF-R1, 1.0E-06 M) | Residual activity ([3]; FGF-R1, 1.0E-07 M) | Residual activity ([4]; 1.0E-06 M) | Residual activity ([4]; 1.0E-07 M) | Residual activity, SGK1 ([5]; assay conc. 1.0E-06 M) | Residual activity, SGK1 ([5]; assay conc. 1.0E-07 M) | Residual activity ([6]; AKT1 aa106-480, 1.0E-06 M) | Residual activity ([6]; AKT1 aa106-480, 1.0E-07 M) | Residual activity ([7]; LRRK2, 1.0E-06 M) | Residual activity ([7]; LRRK2, 1.0E-07 M) | Residual activity, RPS6KA6 ([8]; assay conc. 1.0E-06 M) | Residual activity, RPS6KA6 ([8]; assay conc. 1.0E-07 M) | Residual activity, TTBK1 ([9]; assay conc. 1.0E-06 M) | Residual activity, TTBK1 ([9]; assay conc. 1.0E-07 M) | Residual activity ([10]; EPHA1, 1.0E-06 M) | Residual activity ([10]; EPHA1, 1.0E-07 M)
C#Cc1cc(Nc2ncnc3cc(I)ccc23)ccc1Cl [Compound 41] | 96 % of control | 96 % of control | 83 % of control | 101 % of control | 85 % of control | 107 % of control | 110 % of control | 113 % of control | 77 % of control | 103 % of control | 94 % of control | 96 % of control | 87 % of control | 88 % of control | 94 % of control | 103 % of control | 102 % of control | 113 % of control | 78 % of control | 106 % of control
C#Cc1cc(Nc2ncnc3cc(OC)c(OC)cc23)ccc1Cl [Compound 45] | 91 % of control | 91 % of control | 87 % of control | 88 % of control | 92 % of control | 100 % of control | 93 % of control | 115 % of control | 88 % of control | 99 % of control | 101 % of control | 100 % of control | 81 % of control | 99 % of control | 70 % of control | 93 % of control | 101 % of control | 109 % of control | 80 % of control | 91 % of control
